Each structure is given as a SMILES string.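 Method: 48-hour compound exposure of cells in 96-well plates, five concentrations, linear interpolation of endpoints. GI50 is the concentration that inhibits growth by half.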 The source made the active and inactive calls. Cut-off read from the data, not from the text of the source: active = GI50 up to about 1.1 µM and inactive = higher.

Among the test systems are HCT-15; SF-268; HCT-116; Hs-578T; OVCAR-4; SK-MEL-2; U-251; RXF 393; HCC 2998; ACHN; IGROV-1; 786-0; MCF7; CAKI-1; OVCAR-8; OVCAR-3; LOX IMVI; A549; NCI-H522; HL-60.
What all share (test): growth of human tumour cells (NCI), 48 h

As for `O=C(O)C(Cc1cccs1)C(=O)O`, the GI50 in the experiment on HCT-15 was greater than 100 µM; in the experiment with SF-268, > 100 µM (inactive); in the experiment with HCT-116 it was > 100 µM (inactive); in the experiment on Hs-578T, > 100 µM (inactive); in the experiment on OVCAR-4, > 100 µM (inactive); in the experiment with SK-MEL-2, > 100 µM (inactive). In addition, the GI50 in the experiment on U-251, in the experiment on RXF 393, in the experiment on HCC 2998, in the experiment on ACHN, in the experiment on IGROV-1 and in the experiment on 786-0 was > 100 µM (inactive) each time. In addition, the GI50 in the experiment on MCF7, with CAKI-1, in the experiment on OVCAR-8, in the experiment on OVCAR-3, in the experiment on LOX IMVI and in the experiment on A549 was > 100 µM (inactive) each time. Moreover, the GI50 in the experiment with NCI-H522 and in the experiment with HL-60 was > 100 µM (inactive) in each case.
In the case of `O=C(O)c1cccc(C(=O)O)c1[S+]([O-])Cc1ccccc1` (stereo not given), the GI50 in the experiment with HCT-15 was greater than 100 µM; in the experiment on SF-268 it was > 100 µM (inactive); in the experiment with HCT-116, > 100 µM (inactive); in the experiment on Hs-578T it was > 100 µM (inactive); in the experiment on OVCAR-4, > 100 µM (inactive); with SK-MEL-2, > 100 µM (inactive). Also, the GI50 in the experiment with U-251, in the experiment on RXF 393, in the experiment on HCC 2998, in the experiment on ACHN, with IGROV-1 and in the experiment on 786-0 was > 100 µM (inactive) in each case. Also, the GI50 with MCF7, in the experiment with CAKI-1, in the experiment on OVCAR-8, in the experiment with OVCAR-3, in the experiment with LOX IMVI and in the experiment with A549 was > 100 µM (inactive) in each case. Also, the GI50 in the experiment with NCI-H522 and with HL-60 was > 100 µM (inactive) throughout.
For the molecule `Cc1ccc(N2CN3OC(=O)N(c4ccccc4)[C@@]3(c3ccccc3)C2)cc1`, the GI50 in the experiment with HCT-15 is 23.2 µM; in the experiment on SF-268, 50.7 µM (inactive); in the experiment on HCT-116 it was 29.2 µM (inactive); in the experiment on Hs-578T, 87.9 µM (inactive); with OVCAR-4 it was 34.2 µM (inactive); in the experiment with SK-MEL-2, 19.9 µM (inactive). The GI50 was 30.5 µM (inactive) in the experiment on U-251; 25.1 µM (inactive) with RXF 393; 24.9 µM (inactive) in the experiment with HCC 2998; 39.4 µM (inactive) in the experiment with ACHN; 33 µM (inactive) in the experiment on IGROV-1; 44.5 µM (inactive) in the experiment on 786-0. The GI50 was 33.7 µM (inactive) in the experiment on MCF7; 33.3 µM (inactive) in the experiment on CAKI-1; 57 µM (inactive) with OVCAR-8; 19.4 µM (inactive) with OVCAR-3; 37.5 µM (inactive) in the experiment on LOX IMVI; 36.5 µM (inactive) in the experiment with A549. Also, the GI50 with NCI-H522 was 10.1 µM (inactive); with HL-60, 26.2 µM (inactive).
As for `Cc1ccc2c(c1C)C(=O)/C(=C/c1ccccc1C(=O)O)C2`, the GI50 with HCT-15 is greater than 100 µM; with SF-268, > 100 µM (inactive); in the experiment with HCT-116, > 100 µM (inactive); with Hs-578T, > 100 µM (inactive); in the experiment with OVCAR-4 it was > 100 µM (inactive); in the experiment on SK-MEL-2 it was > 100 µM (inactive). Further, the GI50 in the experiment with U-251, in the experiment with RXF 393, in the experiment on HCC 2998, in the experiment on ACHN, in the experiment on IGROV-1 and in the experiment on 786-0 was > 100 µM (inactive) each time. The GI50 in the experiment on MCF7, with CAKI-1, with OVCAR-8, in the experiment with OVCAR-3, in the experiment on LOX IMVI and in the experiment with A549 was > 100 µM (inactive) throughout. The GI50 with NCI-H522 and in the experiment with HL-60 was > 100 µM (inactive) throughout.
For the molecule `COC(=O)CCc1cc(O)c2c(c1)C(C(=O)OC)C(c1ccc(O)c(O)c1)O2` (stereo not given), the GI50 was 4.36 µM in the experiment on HCT-15; 16.3 µM (inactive) in the experiment on SF-268; 7.19 µM (inactive) in the experiment with HCT-116; 25.2 µM (inactive) in the experiment with Hs-578T; > 58.7 µM (inactive) in the experiment with OVCAR-4; 3.39 µM (inactive) in the experiment on SK-MEL-2. For the same molecule, the GI50 is 11.8 µM (inactive) in the experiment on U-251; 18.7 µM (inactive) in the experiment with RXF 393; 5.02 µM (inactive) in the experiment with HCC 2998; 33.7 µM (inactive) in the experiment with ACHN; 12.1 µM (inactive) with IGROV-1; 26.1 µM (inactive) in the experiment on 786-0. Also, the GI50 in the experiment with MCF7 was 4.79 µM (inactive); with CAKI-1, 26.6 µM (inactive); with OVCAR-8, 21.8 µM (inactive); with OVCAR-3 it was 3.71 µM (inactive); with LOX IMVI it was 8.04 µM (inactive); in the experiment on A549, 43.4 µM (inactive). For the same molecule, the GI50 is 12.6 µM (inactive) with NCI-H522 and 2.55 µM (inactive) with HL-60.
`c1cc2c(ncc3cscc32)s1`: the GI50 in the experiment on HCT-15 is greater than 100 µM; in the experiment on SF-268 it was > 100 µM (inactive); with HCT-116 it was > 31.6 µM (inactive); in the experiment on Hs-578T, > 100 µM (inactive); in the experiment on OVCAR-4 it was > 100 µM (inactive); in the experiment on SK-MEL-2, > 100 µM (inactive). In addition, the GI50 in the experiment on U-251 is > 87.3 µM (inactive); in the experiment on RXF 393, > 79.3 µM (inactive); in the experiment on HCC 2998, > 100 µM (inactive); in the experiment on ACHN, > 100 µM (inactive); with IGROV-1, > 31.6 µM (inactive); in the experiment on 786-0, > 100 µM (inactive). The GI50 is > 100 µM (inactive) in the experiment with MCF7; > 72.4 µM (inactive) with CAKI-1; > 100 µM (inactive) in the experiment on OVCAR-8; > 100 µM (inactive) with OVCAR-3; > 49.5 µM (inactive) in the experiment with LOX IMVI; > 100 µM (inactive) with A549. The GI50 with NCI-H522 and with HL-60 was > 100 µM (inactive) in each case.
Regarding `CCC(C)C1NC(=O)C(NC(=O)C(CC(C)C)N(C)C(=O)[C@@H]2CC(O)CN2C(=O)[C@H](C)O)C(C)OC(=O)[C@H](Cc2ccc(OC)cc2)N(C)C(=O)[C@@H]2CCCN2C(=O)[C@H](CC(C)C)NC(=O)C(C)C(=O)[C@H](C(C)C)OC(=O)CC1O` (stereo not given in full), the GI50 with HCT-15 was 2.13 µM; in the experiment on SF-268, 0.153 µM (active); with HCT-116, 0.0458 µM (active); in the experiment on Hs-578T, 0.0266 µM (active); with OVCAR-4, 0.17 µM (active); in the experiment with SK-MEL-2, 0.0621 µM (active). Moreover, the GI50 in the experiment with U-251 was 0.0718 µM (active); in the experiment on RXF 393, 0.0638 µM (active); with HCC 2998, 0.148 µM (active); in the experiment on ACHN, 0.351 µM (active); in the experiment with IGROV-1, 0.181 µM (active); in the experiment with 786-0, 0.258 µM (active). Further, the GI50 in the experiment with MCF7 was 0.0627 µM (active); in the experiment on CAKI-1, 1.14 µM (inactive); with OVCAR-8, 0.406 µM (active); in the experiment on OVCAR-3 it was 0.232 µM (active); in the experiment with LOX IMVI it was 0.138 µM (active); in the experiment on A549, 0.325 µM (active). Further, the GI50 with NCI-H522 was 0.15 µM (active); in the experiment on HL-60 it was 0.417 µM (active).

These data come from ChEMBL document CHEMBL1201862, “PubChem BioAssay data set” (2004).
